In PubChem BioAssay AID489032 (Sanford-Burnham Center for Chemical Genomics, 2010) one finds EC50 data, which are given here for 82 molecules.

Structures are written as SMILES. The source made the active and inactive calls. No rule for the calls is given here.

For the assay, the system named is UPR adaptive arm reporter cells, luciferase luminescence. Briefly: adaptive unfolded protein response reporter activation – cell-based, luciferase luminescence, dose response (AID 489032).
In the case of `COc1cc(C(=O)Nc2nc(-c3ccc(Cl)cc3)c(C)s2)ccc1OCC(=O)Nc1ccc(F)cc1`, the EC50 (commonly the concentration needed to bring the measured effect to its halfway point) is > 80 µM (inactive).
As for `CC(=O)Oc1ccc(-c2ccc(C(=O)OCC(=O)N(C)CC(=O)Nc3ccccc3Cl)cc2)cc1`, the concentration giving a half-maximal response (EC50) was 2.46 µM.
With `Cc1ccc(NC(=O)c2c(C)nc3sc(C(=O)NC4CCCC4)c(N)c3c2-c2ccco2)c(C)c1`, the EC50 was 48.4 µM (inactive).
Regarding `CCNC(=O)c1c(NC(=O)c2cc(-c3cc(C)ccc3O)n[nH]2)sc2c1CCCC2`, the EC50 was > 80 µM (inactive).
In the case of `COc1ccc(OC)c(NC(=O)c2oc3ccccc3c2NC(=O)C2CC2)c1` it was > 80 µM (inactive).
In the case of `COc1cccc(-c2sc3ccccc3c2-c2ccc(OCCN(C)C)cc2)c1`, the EC50 is > 80 µM (inactive).
As to `Cc1cc(SCC(=O)c2ccc(O)c(O)c2)n2nc(C)c(-c3ccccc3)c2n1`, the EC50 is > 80 µM (inactive).
Turning to `CCOC(=O)c1nnc(-c2ccccc2)nc1Sc1ccccc1Cl`, the EC50 is > 80 µM (inactive).
For the molecule `COc1ccc(Nc2nc(N)c([N+](=O)[O-])c(NC3CCCCC3)n2)cc1`, the EC50 was > 80 µM (inactive).
Consider `O=C(N/N=C/c1ccc(O)c(O)c1)c1ccc(CSc2cccc3cccnc23)cc1`, for which the EC50 was > 80 µM (inactive).
Regarding `Oc1ccc(/C=N/Nc2cc(N3CCOCC3)nc(N3CCOCC3)n2)cc1O`, the EC50 is > 80 µM (inactive).
With `CCOC(=O)c1nnc(-c2ccc(C)cc2)nc1Sc1ccccc1Cl`, the EC50 is > 80 µM (inactive).
For the molecule `CCCCCc1nc2c(c(=O)c3ccccc3n2C)c(=O)n1C1CCCCCC1`, the EC50 is > 80 µM (inactive).
On to `Cc1c(CCOC(=O)C23CC4(C)CC(C)(CC(C)(C4)C2)C3)sc[n+]1CC(=O)c1ccccc1`, for which the EC50 was > 80 µM (inactive).
With `Cn1nc(C(F)(F)F)c(/C=N/OC(=O)c2ccccc2)c1SCc1ccc(Cl)cc1`, the EC50 is 35.5 µM (inactive).
Take `CCc1cccc(CC)c1NC(=O)/C(C#N)=C/c1ccccc1C(F)(F)F`: the EC50 is > 80 µM (inactive).
`CC(C)(C)C(=O)NC(=S)NNC(=O)c1sc2ccccc2c1Cl`: the EC50 is > 80 µM (inactive).
In the case of `FC(F)(F)c1nnc2c(Sc3ccc(Cl)cc3)nc3ccccc3n12`, the EC50 is > 80 µM (inactive).
Consider `Cc1cc(C)c(NC(=O)CSc2nc(COc3ccccc3)nc3ccccc23)c(C)c1`, for which the EC50 was > 80 µM (inactive).
With `COc1ccc(OC)c(-c2nnc3n2N=C(c2ccc(OC)c(OCC4CC4)c2)CS3)c1` the figure was > 80 µM (inactive); with `CCC(C)Nc1nc(N)c([N+](=O)[O-])c(NC2CCCCC2)n1` (configuration not stated), 55.9 µM (inactive); with `CC1C/C(=N/Nc2nc3ccccc3[nH]2)CC(C)(C)C1` (configuration not stated), > 80 µM (inactive).
As for `COc1ccc(/C=c2\s/c(=C(/C#N)C(=O)NCc3ccco3)n(-c3ccccc3)c2=O)cc1`, the EC50 was > 80 µM (inactive).
`COc1ccc(Cn2c(SCc3ccccc3C)nc3cc(OC)c(OC)cc3c2=N)cc1`: the half-maximal effective concentration (EC50) is 15.5 µM.
Regarding `COc1ccc(-c2cc(C(F)F)n3ncc(C(=O)N4CCc5ccccc5C4)c3n2)cc1`, the EC50 was 28.6 µM (inactive).
As for `Cc1ccc(CNC(=O)c2ccc3c(=O)n4c(-c5ccc(C)cc5)csc4nc3c2)cc1`, the EC50 was > 80 µM (inactive).
With `CC(=O)c1cccc(Nc2nc(-c3cccc([N+](=O)[O-])c3)cs2)c1`, the EC50 is > 80 µM (inactive).
For the molecule `CN1C(=O)/C(=C/c2ccc(C(=O)NC3CCCC3)cc2)Oc2ccccc21`, the EC50 was > 80 µM (inactive).
With `Cc1ccc2c(c1)C(=O)C(=O)N2Cc1ccc(Br)cc1` the figure was 59.8 µM (inactive); with `CCOC(=O)C(=CNc1nc(-c2ccccc2)c(C(=O)Nc2ccc(-c3ccccc3)cc2)s1)C(=O)OCC`, 24.7 µM (inactive).
In the case of `COc1ccc(C(CCNCc2ccc(F)cc2)c2ccc(F)cc2)cc1` (configuration not stated) it was 9.17 µM; in that of `CCCc1nc2ccccc2c(=O)n1/N=C/c1ccc(O)c(O)c1`, > 80 µM (inactive).
In the case of `CC1CCC(C(C)C)C(OC(=O)Cn2c(-c3ccc(Cl)cc3)[n+](C)c3ccccc32)C1` (configuration not stated) it was > 80 µM (inactive); in that of `Fc1ccc(Nc2nc(NCc3ccco3)c3ccccc3n2)cc1`, > 80 µM (inactive); in that of `COc1ccc(C(=O)Oc2cc3c4c(c2)C(C)=CC(C)(C)N4C(=O)C3=O)cc1OC`, 25.4 µM (inactive).
In the case of `Cc1ccc(C(C)C)c(OCc2ccc(C(=O)N/N=C/c3ccc(O)c(O)c3)cc2)c1`, the EC50 is 8.24 µM.
In the case of `C/C(=N/NC(=O)c1ccc(Cl)s1)c1ccc(NC(=O)COc2ccc(Cl)cc2)cc1` it was > 80 µM (inactive); in that of `NS(=O)(=O)c1ccc(N/N=C2/CCCCC2C2CCCCC2)c([N+](=O)[O-])c1` (configuration not stated), > 80 µM (inactive).
As for `O=C(CSc1nc2ccc(Nc3nc(N4CCOCC4)nc(N4CCOCC4)n3)cc2s1)Nc1ccccc1F`, the concentration giving a half-maximal response (EC50) is 11.7 µM.
On to `O=c1[nH]c(O)c(/C=C2/C=CC(c3cc(Cl)ccc3Cl)=N2)c(=O)[nH]1`, for which the concentration for a half-maximal effect (EC50) is 9.68 µM.
`CCCCCCCCCCn1c2c(c(=N)c3c1CCC3)CCC2`: the EC50 is 24.9 µM (inactive).
With `CCOc1ccc(C(=O)Nc2ccc(NC(=O)c3ccco3)c(Cl)c2)cc1Cl` the figure was > 80 µM (inactive); with `NC(=O)CC(NC(=O)Cc1cccc2ccccc12)c1ccc(NCCOc2ccccc2)c([N+](=O)[O-])c1` (configuration not stated), > 80 µM (inactive); with `COc1ccc(NC(=O)c2cc3c(=O)n(C)c4ccccc4c3n2C)cc1Cl`, > 80 µM (inactive).
Regarding `Cc1ccc(Cc2cnc(NC(=O)/C(C#N)=C/c3ccc(-c4ccc([N+](=O)[O-])cc4)o3)s2)cc1`, the 50% effective concentration (EC50) is 9.69 µM.
In the case of `Cc1ccc2nc(Nc3nc(-c4ccccc4)cc(=O)[nH]3)nc(C)c2c1` it was 19.3 µM; in that of `O=C1NC(=O)N(Cc2ccccc2Cl)C(=O)/C1=C/c1cccs1`, > 80 µM (inactive).
Turning to `Oc1ccc(CN2CCC(Cc3ccccc3)CC2)c2cccnc12`, the EC50 is > 80 µM (inactive).
`COc1ccc(-c2cc(C(F)F)n3ncc(C(=O)Nc4ccc(C(=O)N5CCOCC5)cc4)c3n2)cc1`: the EC50 is > 80 µM (inactive).
With `NS(=O)(=O)c1ccc(N=Cc2c(O)n(C3CCCCC3)c(=O)n(C3CCCCC3)c2=O)cc1`, the EC50 is > 80 µM (inactive).
As for `COc1ccc(NC(=O)CSc2nc3ccc(Nc4nc(N5CCOCC5)nc(N5CCOCC5)n4)cc3s2)cc1`, the EC50 was > 80 µM (inactive).
For the molecule `NCCOc1ccc(C23CC4CC(CC(C4)C2)C3)cc1`, the EC50 is > 80 µM (inactive).
Regarding `Oc1cc(-c2ccc(N3CCCCC3)nc2)cc2cccnc12`, the EC50 was > 80 µM (inactive).
In the case of `COc1ccc2c(c1)NC(c1cc(Cl)cc(Cl)c1O)c1cccn1-2` (configuration not stated), the EC50 was 33.3 µM (inactive).
With `COc1ccc2[nH]c3nc(SCc4nnc(-c5ccc(C)cc5)o4)nnc3c2c1` the figure was 27.8 µM (inactive).
With `Cc1cc(C)c2c(CCl)cc(=O)oc2c1`, the EC50 was > 80 µM (inactive).
In the case of `CN1/C(=C\C(=O)COC(=O)c2ccc(O)c(O)c2)C(C)(C)c2ccccc21` it was > 80 µM (inactive); in that of `O=C(Nc1ccc(Cl)cc1)Nc1ccccc1Sc1ncc([N+](=O)[O-])s1`, > 80 µM (inactive).
In the case of `CC1=C(CC/C(C)=N/NC(N)=S)C(C)(C)CCC1`, the EC50 is 29.3 µM (inactive).
As to `NC1=NC[C@@H](CC2CCCCC2)N1CCc1cc(C(F)(F)F)cc(C(F)(F)F)c1`, the EC50 was > 80 µM (inactive).
On to `Cc1cc(NC(=O)c2cncc(Br)c2)ccc1NC(=O)c1cc2ccccc2o1`, for which the EC50 was > 80 µM (inactive).
For `CCN(CC)c1ccc(C(=O)OCC(=O)Nc2cc3oc4ccccc4c3cc2OC)cc1`, the EC50 is 25.8 µM (inactive).
On to `CC(C)C(=O)N(c1cc2sc(=O)oc2c2ccccc12)S(=O)(=O)c1cccs1`, for which the EC50 was > 80 µM (inactive).
For the molecule `CCCCNc1c(-c2ccc(SC(C)CC)cc2)nc2cnccn12` (configuration not stated), the EC50 is > 80 µM (inactive).
As to `CC(=O)c1cccc(N=Cc2c(O)c3ccccc3oc2=O)c1`, the EC50 was > 80 µM (inactive).
With `COc1ccc(Cc2nnc(N/N=C/c3ccc(N(C)C)cc3)[nH]c2=O)cc1OC` the figure was 25.5 µM (inactive); with `COc1cccc(C(=O)Oc2cc3c4c(c2)C(C)=CC(C)(C)N4C(=O)C3=O)c1`, 19.6 µM; with `COc1cc(OC)c2c(-c3cccc(-c4ccc(CO)cc4)c3)cc(=O)oc2c1`, > 80 µM (inactive).
Take `CC1(C)CC[C@@]23CC[C@]4(C)[C@@](OC2=O)(C3C1)[C@H]1O[C@H]1C1[C@@]2(C)CC[C@H](O)C(C)(C)C2CC[C@]14C` (some centres not stated): the EC50 was > 80 µM (inactive).
With `O=C(CSCc1ccc(Cl)cc1)Nc1ccc(-c2nnc(-c3ccccc3)o2)cc1` the figure was > 80 µM (inactive); with `Cn1c2ccccc2c2cc(/C=N/NC(=O)c3cc(O)ccc3O)ccc21`, 38.1 µM (inactive); with `CN(C)CC(CCC(CN(C)C)C(O)(c1ccccc1)c1ccccc1)C(O)(c1ccccc1)c1ccccc1` (configuration not stated), > 80 µM (inactive).
Turning to `CCc1ccc2nc(N(CCCN(C)C)C(=O)c3ccc(S(=O)(=O)N4CCc5ccccc5C4)cc3)sc2c1`, the EC50 is > 80 µM (inactive).
As to `Oc1cccc2ccc(/C=C/c3ccc(Br)s3)nc12`, the EC50 is > 80 µM (inactive).
Regarding `O=C1c2ccccc2C(=O)N1/N=C/c1ccc(O)c(O)c1`, the EC50 was > 80 µM (inactive).
As to `O=C(/C=C/c1ccccc1)c1ccccc1O`, the EC50 was > 80 µM (inactive).
As for `CCOc1ccc(Cn2c3ccc(OC)cc3c3nc4ccccc4nc32)cc1OC`, the EC50 was > 80 µM (inactive).
With `CCOC(=O)c1c2ccc(OCC(=O)N/N=C/c3ccc(C)cc3)cc2n2ccccc12` the figure was > 80 µM (inactive); with `Cc1cc(NC(=O)CSc2nc3cc(Cl)ccc3c(=O)n2Cc2ccco2)no1`, > 80 µM (inactive).
As for `COc1ccc(N=Cc2c(O)c3ccccc3oc2=O)cc1`, the concentration for a half-maximal effect (EC50) was 12.2 µM.
Take `COc1ccc(-c2csc(C3=C(O)CN(Cc4ccc(Cl)cc4)C3=N)n2)cc1OC`: the EC50 was > 80 µM (inactive).
As for `COC(=O)C1C(O)=C(C=Nc2cccc3ccccc23)C(=O)CC1(C)C` (configuration not stated), the EC50 was 30.1 µM (inactive).
